Laboratory results reported in ChEMBL document CHEMBL1201862, “PubChem BioAssay data set” (2004).
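Growth conditions: 96-well plates. Treatment: test compound, 48 hours, 5 concentrations. Analysis: linear interpolation between bracketing concentrations; unreached endpoints set to highest concentration. GI50 marks 50% less growth.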 Calls of active or inactive are those of the source. Cut-off read from the data, not from the text of the source: active = GI50 up to about 1.1 µM and inactive = higher. Where a SMILES comes first, the peptide text is derived from it. [ ]: non-standard residue; d: D form. The star is where a group is joined. Bn2Val = CC(C)[C@@H](C(=O)*)N(Cc1ccccc1)Cc1ccccc1; NHPiperonyl = c1cc2c(cc1CN*)OCO2; NMeV = CN[C@H](C(=O)O)C(C)C; dNMeA = CN[C@H](C)C(=O)O

Columns and labels:
Test in all cases: NCI anticancer screen, dose series, 48 h
NCI-H522 = test system: NCI-H522
PC-3 = test system: PC-3
DU-145 = test system: DU-145
Hs-578T = test system: Hs-578T
OVCAR-5 = test system: OVCAR-5
ACHN = test system: ACHN
SF-295 = test system: SF-295
OVCAR-4 = test system: OVCAR-4
RXF 393 = test system: RXF 393
BT-549 = test system: BT-549
SNB-19 = test system: SNB-19
TK-10 = test system: TK-10
A549 = test system: A549
NCI/ADR-RES = test system: NCI/ADR-RES
UACC-257 = test system: UACC-257
A498 = test system: A498
SF-268 = test system: SF-268
OVCAR-8 = test system: OVCAR-8
MOLT-4 = test system: MOLT-4
HCC 2998 = test system: HCC 2998

Measured: GI50

O=C(Cn1ccc(=O)[nH]c1=O)Nc1ccc(C(=O)O)c(O)c1
inactive: NCI-H522 > 100 µM | PC-3 > 100 µM | DU-145 > 100 µM | Hs-578T > 100 µM | OVCAR-5 > 100 µM | ACHN > 100 µM | SF-295 18.2 µM | OVCAR-4 > 100 µM | RXF 393 > 100 µM | BT-549 > 100 µM | SNB-19 > 100 µM | TK-10 > 100 µM | A549 > 100 µM | NCI/ADR-RES > 100 µM | UACC-257 > 100 µM | A498 > 100 µM | SF-268 > 100 µM | OVCAR-8 > 100 µM | MOLT-4 > 100 µM

COc1cccc(C=C2N=C(c3ccccc3)N(n3c(-c4ccccc4)nc4ccccc4c3=O)C2=O)c1
inactive: NCI-H522 18.3 µM | PC-3 41.2 µM | DU-145 83.8 µM | Hs-578T 48.2 µM | ACHN 42.3 µM | SF-295 57.4 µM | BT-549 > 100 µM | SNB-19 64.6 µM | TK-10 > 100 µM | A549 43.7 µM | UACC-257 30.3 µM | A498 67.9 µM | SF-268 56.4 µM | HCC 2998 64.6 µM | OVCAR-8 44.5 µM | MOLT-4 30.3 µM

S=C(c1c[nH]c2ccccc12)N1CCN(Cc2ccccc2)CC1
inactive: PC-3 15.7 µM | DU-145 17.5 µM | Hs-578T 17.4 µM | OVCAR-5 16.2 µM | ACHN 25.5 µM | SF-295 14.8 µM | RXF 393 16.1 µM | BT-549 14.7 µM | SNB-19 14.9 µM | TK-10 26.4 µM | NCI/ADR-RES 17 µM | UACC-257 20.7 µM | A498 19.2 µM | SF-268 19.5 µM | OVCAR-8 19.1 µM | MOLT-4 16.6 µM

C=C1CC2C[C@H](OS(=O)(=O)c3ccc(C)cc3)C(C1)N2C (stereo not given in full)
inactive: NCI-H522 > 100 µM | PC-3 > 100 µM | DU-145 > 100 µM | Hs-578T > 100 µM | SF-295 > 100 µM | OVCAR-4 > 100 µM | RXF 393 > 100 µM | BT-549 > 100 µM | SNB-19 > 100 µM | TK-10 > 100 µM | A549 > 100 µM | NCI/ADR-RES > 100 µM | UACC-257 > 100 µM | SF-268 > 100 µM | HCC 2998 > 100 µM | OVCAR-8 > 100 µM | MOLT-4 > 100 µM

C=C(C)CC1(O[Si](C)(C)C)C(=O)C(OCC)=C1OCC (stereo not given)
inactive: NCI-H522 > 100 µM | PC-3 > 100 µM | DU-145 > 100 µM | Hs-578T > 100 µM | OVCAR-5 > 100 µM | ACHN > 100 µM | SF-295 > 100 µM | OVCAR-4 > 100 µM | BT-549 > 100 µM | SNB-19 > 100 µM | TK-10 > 100 µM | A549 > 100 µM | NCI/ADR-RES > 100 µM | UACC-257 > 100 µM | A498 > 100 µM | SF-268 > 100 µM | OVCAR-8 > 100 µM | MOLT-4 > 100 µM

CC1C(OC2O[C@@H]3O[C@@]4(C)CC[C@H]5[C@H](C)CC[C@@H](C2C)[C@@]35O4)O[C@@H]2O[C@@]3(C)CC[C@H]4[C@H](C)CC[C@@H]1[C@@]24O3 (stereo not given in full)
inactive: NCI-H522 19.3 µM | PC-3 > 50 µM | DU-145 > 50 µM | Hs-578T > 50 µM | OVCAR-5 > 50 µM | ACHN 1.65 µM | SF-295 > 50 µM | OVCAR-4 > 50 µM | BT-549 > 50 µM | SNB-19 > 50 µM | TK-10 > 50 µM | A549 > 50 µM | UACC-257 > 50 µM | A498 > 50 µM | SF-268 > 50 µM | HCC 2998 > 50 µM | OVCAR-8 > 50 µM | MOLT-4 > 50 µM

CC(=O)OC1=NN=C2COC(c3ccccc3OC(C)=O)=NN2C1
inactive: NCI-H522 > 50 µM | PC-3 20.1 µM | DU-145 > 50 µM | Hs-578T 24 µM | OVCAR-5 > 50 µM | ACHN > 50 µM | SF-295 > 50 µM | OVCAR-4 > 50 µM | RXF 393 > 50 µM | BT-549 > 50 µM | SNB-19 > 50 µM | TK-10 > 50 µM | A549 > 50 µM | NCI/ADR-RES > 50 µM | UACC-257 20.4 µM | SF-268 34.8 µM | HCC 2998 > 50 µM

COCn1cnc2c(=O)nc(SC)n(-c3ccccc3)c21
inactive: NCI-H522 > 100 µM | DU-145 > 100 µM | Hs-578T > 100 µM | OVCAR-5 > 100 µM | ACHN > 100 µM | SF-295 > 100 µM | OVCAR-4 > 100 µM | RXF 393 > 100 µM | BT-549 > 100 µM | SNB-19 > 100 µM | TK-10 > 100 µM | A549 > 100 µM | NCI/ADR-RES > 100 µM | UACC-257 > 100 µM | A498 > 100 µM | SF-268 > 100 µM | HCC 2998 > 100 µM | OVCAR-8 > 100 µM | MOLT-4 > 100 µM

Cc1nn(-c2ccccc2)c2c1C(c1ccc(Cl)cc1)NC(=S)N2 (stereo not given)
inactive: NCI-H522 14 µM | PC-3 18.9 µM | DU-145 88.9 µM | Hs-578T 29 µM | OVCAR-5 27.5 µM | ACHN 20.7 µM | SF-295 24.5 µM | OVCAR-4 54.5 µM | RXF 393 15.7 µM | BT-549 25.9 µM | SNB-19 28.6 µM | TK-10 18.7 µM | A549 24.6 µM | NCI/ADR-RES 24.3 µM | UACC-257 36.6 µM | A498 23.1 µM | SF-268 25.8 µM | OVCAR-8 22.5 µM | MOLT-4 38.6 µM

O=C(Nc1ccc2nc(O)n[n+]([O-])c2c1)C(F)(F)F
inactive: NCI-H522 > 100 µM | PC-3 > 100 µM | DU-145 > 100 µM | Hs-578T > 100 µM | OVCAR-5 > 100 µM | ACHN > 100 µM | SF-295 > 100 µM | OVCAR-4 > 100 µM | BT-549 > 100 µM | SNB-19 > 100 µM | TK-10 > 100 µM | A549 > 100 µM | NCI/ADR-RES > 100 µM | UACC-257 > 100 µM | A498 > 100 µM | SF-268 > 100 µM | OVCAR-8 > 100 µM | MOLT-4 > 100 µM

CC(C)[C@H](NC(=O)[C@H](C(C)C)N(Cc1ccccc1)Cc1ccccc1)C(=O)N(C)[C@H](C(=O)N1CCC[C@H]1C(=O)N(C)[C@H](C)C(=O)NCc1ccc2c(c1)OCO2)C(C)C (Bn2Val-V[NMeV]P[dNMeA]-NHPiperonyl)
inactive: NCI-H522 14.7 µM | PC-3 3.35 µM | DU-145 11.6 µM | Hs-578T 39.1 µM | OVCAR-5 4.38 µM | ACHN 8.11 µM | SF-295 4.94 µM | OVCAR-4 5.85 µM | BT-549 13.2 µM | SNB-19 18.2 µM | TK-10 18.3 µM | A549 15.6 µM | NCI/ADR-RES 2.91 µM | UACC-257 5.56 µM | SF-268 17.7 µM | HCC 2998 3.23 µM | OVCAR-8 8.61 µM | MOLT-4 2.73 µM
